EC50 data for 1 compound are collected here from patent publication US10730881B2, “Fused pyrimidine derivatives” (Hoffmann-La Roche Inc., priority 2016, dated 2020).

The assay has as its target γ-secretase (Homo sapiens, UniProt P49768). The assay can be described thus: Cellular γ-secretase assay (inhibition of Aβ42 secretion, AlphaLisa). The assay is classed as cell-based. The conditions noted are these: human neuroglioma H4 cells overexpressing human APP695 Swedish double mutation, 24 hr compound incubation. Here is the method:
Human neuroglioma H4 cells overexpressing human APP695 with the Swedish double mutation (K595N/M596L) were plated at 30,000 cells/well/100 μl in 96-well plates in IMDM media containing 10% FCS, 0.2 mg/l Hygromycin B and incubated at 37° C., 5% CO2. 3-4 hr post plating, compounds are a diluted in media and 50 μl is added as 1.5-fold concentrate to achieve the final concentration. Compound incubation is performed for 24 hr. Final doses typically range from 4 μM down to 0.0013 μM in half-log steps resulting in a eight point dose response curve. Appropriate controls using vehicle only and reference compound were applied to this assay. The final concentration of Me2SO was 0.4%. After incubation at 37° C., 5% CO2, the supernatant was subjected to quantification of secreted Aβ42 by the means of an AlphaLisa assay kit (Human Amyloid beta 1-42 Kit: Cat # A[…], Perkin Elmer). 20 μl of the cell culture supernatant was transferred to an assay plate. […] The assay plate was then read on a Paradigm AlphaLisa Reader using the build-in program with excitation at 680 nm and emission at 570 nm. The measured signals were then used to calculate IC50 values for inhibition of Aβ42 secretion by nonlinear regression fit analysis using XLfit 5.3 software (IDBS).
(Alpha assays give light when donor and acceptor beads are brought close together.)

What is called EC50 is the midpoint of the concentration-response curve. Compound `CNc1nc(N[C@@H]2[C@@H]3CC[C@H]2CN(c2cc(C)ncn2)C3)nc2c1C(C)(C)CN2C1CC(F)(F)C1` [Example 13, 7-(3,3-Difluorocyclobutyl)-N4,5,5-trimethyl-N2-((1R,5S,8s)-3-(6-methylpyrimidin-4-yl)-3-azabicyclo[3.2.1]octan-8-yl)-6,7-dihydro-5H-pyrrolo[2,3-d]pyrimidine-2,4-diamine] came in with an EC50 of 36 nM.
